Results from patent US20080221134A1, “8-ALKYNYLXANTHINES AND DERIVATIVES” (priority 2006, published 2008).

Tested on: rats
Experiment: Modified Irwin test (FOB, SAC, FU)
Format: in vivo, rat
Conditions: 0.01-30 mg/kg
Source text: In this study the compounds of the present invention were screened for basal behavioural, autonomic, neurological and toxicological side-effects in rats. For this purpose, a functional observational battery (FOB) in form of an Irwin test (Irwin S., Psychopharmacologia, 1968, 13, 222; 1968; Warburton D. M. Psychopharmacology, 2002, 163, 4; Haggerty G. C. et al., J. Amer. Coll. Toxicol., 1991, 10, 677; Mattsson J. L. et al., J. Amer. Coll. Toxicol., 1996, 15, 239, all references are herein incorporated by reference) modified and validated by the Test Facility was used. Each test compound was tested at eight doses (0.01, 0.03, 0.1, 0.3, 1.0, 3.0, 10.0 and 30.0 mg/kg). All compounds were dissolved in DMSO (administration volume 1 ml/kg). Each dose group included three animals. Two vehicle groups (DMSO and Labrasol) served as negative controls.
At the first day of each test week all test compound solutions necessary for the test (1-2 weeks) were prepared by means of one dilution series starting with the highest concentration. All test compounds dissolved in DMSO were administered in a volume of 1 ml/kg. DMSO-containing solutions were stored at −18° C. All solutions were melted for administration at room temperature 16-20 hours before the start of the test.
Study design and time schedule:
4-7 days: Acclimatization and handling of the animals 1 day: Test day with • (a) Four repeated functional observational battery (FOB): 30 min, 60 min, 120 min, 180 min following compound administration • (b) Short animal check (SAC): 300 min following compound administration 1 day: Follow-up observation (FU): • 24 h (1440 min) following compound administration.
In all experimental parts, an experienced ethologist used lists of predefined methods and behavioural parameters in order to rate the behaviour of the animal (see table 7 for functional observational battery (FOB), table 8 for short animal check (SAC) and table 9 for follow-up observation (FU).
A statistical evaluation of the data was performed that enabled an assessment of the compound's effects on each parameter. Dose-response relationships are not necessarily linear. It was not clear a priori whether the response would be dose-dependent or whether low, medium or high dose effects would occur. Therefore, the data were correlated against a set of different numeric models of theoretical dose-response curves. For this kind of evaluation the measurement times were not differentiated. An average value over all measurement times was calculated for each animal. This value was taken as one measurement within the observation vector. The complete set of parameters measured for the animal (each one averaged over time) formed the observation vector. Each dose was then represented by three observation vectors (3 animals per dose). The effects of all doses were compared with vehicle (DMSO) as the observation vectors for the zero dose. A common pool of 24 animals for the zero dose was used for all compounds to be tested. For each test compound the obtained values for each parameter together with values from the pool of vehicle-treated (DMSO) animals were then correlated with theoretical dose-response models (analysis profiles). Since 8 doses were be used, there were 8 models, each assuming that the maximum compound effect occurred at one of these doses. Effects of other doses were assumed to be attenuated with a linearly descending slope of the theoretical curve. Correlation values and statistical significance of regression were then calculated. An error probability of p<0.05 (two-tailed testing) was taken as significance level. Non-significant regressions were neglected. In consequence, each parameter was assessed as not affected or affected by the compound in a dose-response relationship according to type 1 (low dose effect) up to type 8 (high dose effect). Dose response is maximal for the effect with the greatest absolute correlation coefficient. […]

C#CCn1c(=O)c2c(nc(C#Cc3ccc(OC)c(OC)c3)n2C)n(CC)c1=O [test compound 1, 3-ethyl-8-(3,4-dimethoxyphenylethynyl)-7-methyl-1-prop-2-ynyl-3,7-dihydropurine-2,6-dione]
activity in the Irwin Test (hyperlocomotion): potent hyperlocomotion

C#CCn1c(=O)c2c(nc(C#Cc3ccc(OC)c(OC)c3)n2C)n(CCCO)c1=O [test compound 2, 3-(3-hydroxypropyl)-8-(3,4-dimethoxyphenylethynyl)-7-methyl-1-prop-2-ynyl-3,7-dihydropurine-2,6-dione]
activity in the Irwin Test (hyperlocomotion): potent hyperlocomotion
